Reference: PMC7884786 (Translational Psychiatry, 2021)
Entries after “also recorded” stand apart in the source; their conditions may differ. Like-named read-outs stand apart in the source and are kept apart here.

What was measured:
[1] = system: glucose-stimulated insulin secretion (GSIS) from β-cells in mouse islets; experiment: Islet secretion assay: insulin secretion from mouse islets; type: cell-based
Experimental: (§1) Islets were freshly isolated via collagenase digestion of pancreata as described previously. Human pancreatic islets were isolated via collagenase digestion and purified from four non-diabetic human donors (Supplementary Table S1) as described previously. Following isolation and purification, human or mouse islets were plated at a density of 15 islets per well into 24-well tissue culture-treated plates. […] The islets were used immediately after overnight recovery for hormone secretion assays.
(§2) Measurements of hormone secretion were performed using static incubation of pancreatic islets. […] Islets were then transferred to a 24-well plate containing KRB buffer also supplemented with 25 mM glucose. Drug treatments were added in KRB (25 mM glucose) (1 hr, 37 °C, 5% CO2). After treatment, KRB was supplemented with a protease inhibitor cocktail (1 tablet/10 mL KRB; Roche Diagnostics, Mannheim, Germany) to prevent glucagon degradation. Supernatants were collected and placed on ice to further prevent glucagon degradation and precipitation. Undiluted supernatants and 1:2 dilutions were used for the glucagon detection assay, while 1:10 dilutions were used for insulin measurement; all dilutions were in KRB.

α2A-adrenergic receptor = α2A-adrenergic receptor (Rattus norvegicus, UniProt P22909); experiment: NanoBRET Gαi1 recruitment to α2A-adrenergic receptor; type: cell-based
α2A-adrenergic receptor, sequence (P63096 2-354 partner limits assumed, one chain of several): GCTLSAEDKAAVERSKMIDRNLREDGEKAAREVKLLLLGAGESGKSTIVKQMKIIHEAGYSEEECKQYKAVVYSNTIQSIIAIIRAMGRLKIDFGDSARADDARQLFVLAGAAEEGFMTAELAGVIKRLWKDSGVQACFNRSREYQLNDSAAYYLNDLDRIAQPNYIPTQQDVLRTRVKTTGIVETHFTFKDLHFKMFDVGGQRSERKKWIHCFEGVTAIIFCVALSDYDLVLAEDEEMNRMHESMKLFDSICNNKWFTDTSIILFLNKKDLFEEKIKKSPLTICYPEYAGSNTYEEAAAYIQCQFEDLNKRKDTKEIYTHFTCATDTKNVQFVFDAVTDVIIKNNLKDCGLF
Description: For nanoBRET experiments, we used receptor constructs consisting of either human D2R (DRD2) and rat α2A-adrenergic receptor (Adra2a) cDNAs fused to HaloTag at the C-terminus (α2A-AR-HaloTag and D2R-HaloTag). Both receptors were also tagged at the N terminus with an IL6 signal sequence followed by a HiBiT tag. […] All constructs were cloned into a pcDNA3.1(+) vector backbone (ThermoFisher Scientific) and confirmed by sequencing analysis.
For NanoLuc-only controls, empty pcDNA3.1(+) vector was used to maintain a constant amount of total transfected DNA.
Cells were harvested, washed, and resuspended in fresh medium 24 h post-transfection. Approximately 5 × 10^4 cells/well were distributed in pre-coated 96-well plates and allowed to adhere overnight (37 °C, 5% CO2). […] Following labeling, cells were washed once with HBSS, and 5 μM furimazine (substrate for NanoLuc) was added to every well. Drugs were then added to the samples and incubated for […]. Plates were read 5 min following drug addition using a PheraStar FSX equipped with a nanoBRET-compatible optic module (LUM 610 450) (BMG Labtech). […] EC50 values were calculated via a non-linear regression analysis via GraphPad software.

[2] = system: glucose-stimulated insulin secretion (GSIS) from β-cells in human islets; experiment: Islet secretion assay: insulin secretion from human islets; type: cell-based; details: for IC50: read-out: IC50, reduction of insulin secretion (GSIS); for increase in GSIS compared to vehicle / effect on glucose-stimulated insulin secretion: 1 µM; for effect on glucose-stimulated insulin secretion: relative to vehicle
Experimental: as §1, §2

[3] = system: α-cell glucagon secretion in human islets; experiment: Islet secretion assay: glucagon secretion from human islets; type: cell-based; details: for effect on glucagon secretion: increasing concentrations, relative to vehicle control; for increase in glucagon secretion compared to vehicle / effect on α-cell glucagon secretion: 1 µM; for effect on α-cell glucagon secretion: relative to vehicle
Experimental: as §1, with “For mouse pancreatic islet preparations, islets were obtained from 8 to 10-week-old wild-type BALB/c mice. Islets” for “Islets”
(§3) Measurements of hormone secretion were performed using static incubation of pancreatic islets. […] The increased glucose (25 mM) was used to inhibit α-cell glucagon secretion to diminish glucagon levels to basal levels to improve the dynamic range of the assay and thus effectively unmask the role of ligand-mediated glucagon secretion as described earlier. Islets were then transferred to a 24-well plate containing KRB buffer also supplemented with 25 mM glucose. Drug treatments were added in KRB (25 mM glucose) (1 hr, 37 °C, 5% CO2). After treatment, KRB was supplemented with a protease inhibitor cocktail (1 tablet/10 mL KRB; Roche Diagnostics, Mannheim, Germany) to prevent glucagon degradation. Supernatants were collected and placed on ice to further prevent glucagon degradation and precipitation. Undiluted supernatants and 1:2 dilutions were used for the glucagon detection assay, while 1:10 dilutions were used for insulin measurement; all dilutions were in KRB.

[4] = system: α2A-adrenergic receptor KO INS-1E cells; experiment: cells; details: Rattus norvegicus, read-out: IC50, inhibition of GSIS
Description: (§5) We employed a CRISPR-Cas9-mediated approach to delete endogenous α2A-adrenergic receptor expression in INS-1E cells. Since INS-1E cells are rat-derived, we used the mRNA sequence encoding rat α2A-adrenergic receptor as a template to generate guide RNA (gRNA) to disrupt the promoter region of the Adra2a gene (gRNA sequence: 5′-[sequence]-3′, positions 57–76). We then generated a construct containing the Adra2a gRNA sequence along with cDNA sequences encoding Cas9 and GFP (pENTR-Adra2a-sgRNA-Cas9-GFP). 1–5 μg of the construct was subsequently transfected into low-passage INS-1E cells using Lipofectamine 3000 (ThermoFisher Scientific) according to manufacturer instructions. 24–48 h post-transfection, the transfected cells were identified and collected by fluorescence-activated cell sorting based on GFP fluorescence using a BD FACSAria II sorter (BD Biosciences, San Jose, CA) equipped with a GFP filter (530/30 nm).
(§6) Insulin secretion assays in INS-1E cells were conducted as described earlier[7],[42]. […] Insulin secretion was carried out 48 h after seeding the cells. On an experimental day, cells were first glucose-starved in KRB (0 mM glucose) for 1 h (37 °C, 5% CO2), followed by glucose stimulation with KRB supplemented with 20 mM glucose in the presence or absence of drugs for 90 min (37 °C, 5% CO2). The supernatants were collected and diluted 1:10 in KRB for the insulin detection assay.
(§7) The assay is based on homogeneous time-resolved fluorescence resonance energy transfer (HTRF) technology. Standard curve and assay samples (10 μL/well) were plated into a 384-well white, low-volume, round-bottom plate (Corning, Corning, NY). […] Secreted insulin was similarly detected and measured by an HTRF approach using the insulin high range detection kit (Cisbio Bioassays) as described previously[42]. The two anti-insulin antibodies were mixed in a 1:2 donor (cryptate)/acceptor (XL665) ratio in the insulin assay detection buffer (Cisbio Bioassays) and 15 µL of the insulin antibody mix was added per well. For both glucagon and insulin HTRF assays, the incubation time was 2 h at room temperature. […] The raw data were obtained in ng/mL insulin secreted and pg/mL glucagon secreted. Dose-response curves were fit via non-linear regression of Log[ligand] versus normalized % glucagon or insulin secretion. Investigators were blinded to the identity of samples during the initial analysis.

[5] = target: T1, endogenous α2A-adrenergic receptors in INS-1E cells (Rattus norvegicus, UniProt P22909); experiment: [3H]RX821002 radioligand binding, INS-1E cell membranes; details: for Bmax, saturation binding / Kd: parental INS-1E cell membranes; for Kd: read-out: KD, saturation binding
T1 construct: adherent INS-1E cells expressing the endogenous α2A-adrenergic receptors; endogenous in cells; host or cells: INS-1E (rat insulinoma) cell membranes
T1 sequence (P22909 1-465): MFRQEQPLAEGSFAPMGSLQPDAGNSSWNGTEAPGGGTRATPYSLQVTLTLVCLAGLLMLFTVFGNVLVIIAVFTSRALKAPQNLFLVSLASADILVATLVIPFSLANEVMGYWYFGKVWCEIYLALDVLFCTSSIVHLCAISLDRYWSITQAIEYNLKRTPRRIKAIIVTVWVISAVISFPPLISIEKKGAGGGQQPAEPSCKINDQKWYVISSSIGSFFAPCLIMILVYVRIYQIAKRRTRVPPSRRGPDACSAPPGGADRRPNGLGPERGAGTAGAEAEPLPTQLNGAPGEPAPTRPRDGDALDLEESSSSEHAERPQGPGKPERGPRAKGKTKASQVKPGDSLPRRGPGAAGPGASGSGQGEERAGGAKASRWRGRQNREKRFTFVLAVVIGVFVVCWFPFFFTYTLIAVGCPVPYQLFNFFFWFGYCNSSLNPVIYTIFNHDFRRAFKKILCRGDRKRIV
Experimental: (§4) Radioligand binding and competition assays were conducted as previously described. Briefly, adherent INS-1E cells expressing the endogenous α2A-adrenergic receptors or transfected HEK-293 cells overexpressing human α2A-adrenergic receptor were dissociated from plates, and intact cells collected by centrifugation (600–900 g, 5–10 min, 4 °C). Cells were resuspended and lysed using 5 mM Tris-HCl and 5 mM MgCl2 (pH 7.4, 4 °C). Cell lysates were pelleted by centrifugation at 30,000 × g for 30 min and resuspended in Earle’s Balanced Salt Solution with Ca^2+ (pH 7.4). For saturation binding assays, cell lysates (100 µL, 2–5 μg of protein for HEK-293 cells and 10–20 μg of protein for INS-1E cells, quantified by the Bradford Assay) were incubated with the indicated concentrations of [^3H]RX821002 (90 min, room temperature). […] The bound ligand was separated from free ligand by filtration through a Perkin Elmer Unifilter-96 GF/C 96-well microplate using the Perkin Elmer Unifilter-96 Harvester (Perkin Elmer, Waltham, MA), followed by three washes with ice-cold assay buffer. After drying, a liquid scintillation cocktail (MicroScint PS; Perkin Elmer) was added to each well, and plates were sealed and analyzed on a Topcount NXT liquid scintillation counter (Perkin Elmer). Ki values were calculated from observed IC50 values using the Cheng–Prusoff equation[47].

parental INS-1E cells = experiment: Glucose-stimulated insulin secretion (GSIS) in parental INS-1E cells; type: cell-based; details: Rattus norvegicus, 1.5 h, read-out: IC50, inhibition of GSIS
[6] = system: α-cell glucagon secretion from mouse islets; experiment: Islet secretion assay: glucagon secretion from mouse islets; type: cell-based; details: for EC50: read-out: EC50, increase in secreted glucagon
Experimental: as §1, with “For mouse pancreatic islet preparations, islets were obtained from 8 to 10-week-old wild-type BALB/c mice. Islets” for “Islets”
as §3

αTC1–6 cells = experiment: Catecholamine secretion assay with HPLC measurement; type: cell-based, mouse
Experimental: Cell-based catecholamine secretion assays were conducted as reported earlier[7]. Briefly, αTC1–6 cells were seeded into 24-well plates at an initial seeding density of 5 × 10^5 cells/well in complete DMEM medium. […] Some samples were also supplemented with 10 μM L-DOPA to boost cell catecholamine production in the presence or absence of a monoamine oxidase inhibitor cocktail (10 μM: deprenyl, pargyline, clorgyline). […] Lysates were collected and centrifuged at 17,000 rpm for 5 min at 4 °C to pellet cell debris and then added into HEGA buffer for High-Performance Liquid Chromatography (HPLC) analysis.
Assay samples were filtered (0.20 μm filter; ThermoFisher Scientific) and analyzed via HPLC with electrochemical detection as previously reported[7]. Briefly, samples were separated on a C18 reverse-phase column (Hypersil ODS C18 column, ThermoFisher Scientific) with MD-TM mobile phase (ThermoFisher Scientific).

[7] = system: membranes from α2A-adrenergic receptor KO INS-1E cells; experiment: [3H]RX821002 saturation binding, α2A-adrenergic receptor KO INS-1E cell membranes; design: species or system rat
Experimental: as §4

[8] = target: T2, human α2A-adrenergic receptor (Homo sapiens, UniProt P08913); experiment: [3H]RX821002 radioligand binding, HEK-293 cells overexpressing α2A-adrenergic receptor; details: membranes from HEK-293 cells overexpressing human α2A-adrenergic receptor
T2 construct: expressed in transfected cells; host or cells: HEK-293 (ATCC CRL-1573), transient transfection
T2 sequence (P08913 1-465): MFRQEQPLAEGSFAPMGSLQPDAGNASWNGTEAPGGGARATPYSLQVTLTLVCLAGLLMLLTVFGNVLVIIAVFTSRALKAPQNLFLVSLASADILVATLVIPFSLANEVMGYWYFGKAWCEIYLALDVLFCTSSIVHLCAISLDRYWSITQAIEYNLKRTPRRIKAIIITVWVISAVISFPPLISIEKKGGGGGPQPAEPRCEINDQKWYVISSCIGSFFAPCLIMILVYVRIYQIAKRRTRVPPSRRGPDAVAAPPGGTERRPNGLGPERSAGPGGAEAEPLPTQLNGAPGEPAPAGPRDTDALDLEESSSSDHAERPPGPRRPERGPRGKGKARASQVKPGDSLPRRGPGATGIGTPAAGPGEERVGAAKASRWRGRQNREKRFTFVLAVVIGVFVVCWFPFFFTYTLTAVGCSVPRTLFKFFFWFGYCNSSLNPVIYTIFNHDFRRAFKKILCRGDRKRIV
Experimental: as §4

[9] = system: α2A-adrenergic receptor KO INS-1E cells; details: α2A-adrenergic receptor KO INS-1E cells compared to parental
Description: as §5, §6, §7

[10] = 10 μM L-DOPA supplementation, compared to untreated cells
[11] = parental INS-1E cells, 20 mM glucose, 90 min

NCCc1ccc(O)c(O)c1 [DA, Dopamine]
IC50 ([1]; Mus musculus, read-out: IC50, reduction of insulin secretion (GSIS), mouse islets): 1290 ± 2 nM
IC50 ([1]; read-out: IC50, reduction of insulin secretion (GSIS), mouse islets): 1300 ± 2 nM
EC50 (α2A-adrenergic receptor): 2100 ± 2 nM
IC50 ([2]; Homo sapiens): 26.2 ± 2.9 nM
effect on glucagon secretion [3]: biphasic glucagon secretory response
IC50 [4]: 474 ± 2.5 nM
Ki [5]: 164 ± 1.2 nM
IC50 (parental INS-1E cells; INS-1E): 1500 ± 2 nM
EC50 ([6]; Mus musculus, 1 h): 14.9 ± 3.8 nM

N[C@@H](Cc1ccc(O)c(O)c1)C(=O)O [L-DOPA, L-3,4-dihydroxyphenylalanine]
fold increase in NE (αTC1–6 cells; [10]): 3 fold
fold increase in α-cell DA secretion (αTC1–6 cells; [10]): 60 fold
DA levels, fold more compared to NE (αTC1–6 cells; pre-incubation with 10 μM L-DOPA): 27 fold

NC[C@H](O)c1ccc(O)c(O)c1 [NE, norepinephrine]
IC50 ([1]; Mus musculus, mouse islets, read-out: IC50, reduction of insulin secretion (GSIS)): 178 ± 2.4 nM
IC50 ([1]; mouse islets, read-out: IC50, reduction of insulin secretion (GSIS)): 179 ± 2.4 nM
IC50 ([2]; Homo sapiens, human islets): 787.2 ± 1.3 nM
IC50 ([2]; human islets): 787 ± 1.3 nM
effect on glucagon secretion [3]: significantly enhance glucagon secretion; also recorded: significantly increased α-cell glucagon secretion
IC50 [4]: 1400 ± 2 nM
IC50 (parental INS-1E cells; [11]): 39.8 ± 1.5 nM
EC50 ([6]; Mus musculus, 1 h, mouse islets, 25 mM glucose, 1 hr): 142 ± 2.3 nM
EC50 ([6]; mouse islets, 25 mM glucose, 1 hr): 142 ± 2.3 nM

COC1(C2=NCCN2)COc2ccccc2O1 (centres unmarked) [[^3H]RX821002]
Bmax, saturation binding [7]: 29.1 ± 4.3 fmol/mg protein
Bmax, saturation binding [5]: 110 ± 3.3 fmol/mg protein
Bmax, saturation binding ([5]; listed as [3H]RX821002): 110±0.02 fmol/mg protein
Kd ([5]; listed as [3H]RX821002): 0.098 ± 0.02 nM
Kd [5]: 0.1 ± 0.02 nM
Bmax, saturation binding [8]: 5691 ± 103 fmol/mg protein
Bmax, saturation binding ([8]; listed as [3H]RX821002): 5691±103 fmol/mg protein
Kd ([8]; read-out: KD, saturation binding): 0.67 ± 0.05 nM

Clc1cccc(Cl)c1N=C1NCCN1 [clonidine]
GSIS inhibition in KO cells [9]: attenuated; also recorded: virtually eliminated
IC50 (parental INS-1E cells; [11]): 12.7 ± 1.3 nM

CN1CCN(C2=Nc3cc(Cl)ccc3Nc3ccccc32)CC1 [clozapine]
increase in GSIS compared to vehicle ([2]; human islets): 19.8 ± 4.0%
effect on glucose-stimulated insulin secretion ([2]; human islets): raised glucose-stimulated insulin secretion
increase in glucagon secretion compared to vehicle [3]: 200.2 ± 21.7%
effect on α-cell glucagon secretion [3]: significantly raised α-cell glucagon secretion

O=C(CCCN1CCC(O)(c2ccc(Cl)cc2)CC1)c1ccc(F)cc1 [haloperidol]
increase in GSIS compared to vehicle ([2]; human islets): 24.1 ± 4.6%
effect on glucose-stimulated insulin secretion ([2]; human islets): raised glucose-stimulated insulin secretion
increase in glucagon secretion compared to vehicle [3]: 67.1 ± 13.6%
effect on α-cell glucagon secretion [3]: significantly raised α-cell glucagon secretion

Cc1cc2c(s1)Nc1ccccc1N=C2N1CCN(C)CC1 [olanzapine]
increase in GSIS compared to vehicle ([2]; human islets): 43.6 ± 3.1%
effect on glucose-stimulated insulin secretion ([2]; human islets): raised glucose-stimulated insulin secretion
increase in glucagon secretion compared to vehicle [3]: 105.7 ± 23.4%
effect on α-cell glucagon secretion [3]: significantly raised α-cell glucagon secretion

CC(C)NC[C@H](O)COc1cccc2ccccc12 [propranolol, S-(−)-propranolol]
effect of propranolol on DA-induced glucagon secretion ([6]; mouse islets, propranolol 100 nM pre-treatment prior to DA): attenuates DA’s enhancement of glucagon secretion; also recorded: eliminated DA-induced increases in α-cell glucagon secretion
